Where two headings read alike, the source gives them in different places. Bounds are passed on as bounds.

This test addresses full length NS3/4a (Hepatitis C virus genotype 1b (isolate BK) (HCV), UniProt P26663). The experiment in a line: NS3 Protease Assay (Example A), FRET-based. The format is biochemical. The method, boiled down:
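Full-length NS3/4a, made in-house, with an NS4A/B-derived peptide substrate carrying QXL520 quencher and 5-FAMsp fluorophore. Buffer 50 mM Tris pH8, 20 mM DTT, 1% CHAPS, 10% glycerol, 5% DMSO. Fluorescence followed 30 min at room temperature; IC50 from initial rates of replicate curves.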

The mark [1] stands for this setting: HCV NS3 protease assay, full length NS3/4a, read-out: Assay A IC50 (μM) average.
Where [2] appears, read: read-out: IC50 against the protease activity of the full length NS3/4a.

Sequence of full length NS3/4a (P26663 1027-1657): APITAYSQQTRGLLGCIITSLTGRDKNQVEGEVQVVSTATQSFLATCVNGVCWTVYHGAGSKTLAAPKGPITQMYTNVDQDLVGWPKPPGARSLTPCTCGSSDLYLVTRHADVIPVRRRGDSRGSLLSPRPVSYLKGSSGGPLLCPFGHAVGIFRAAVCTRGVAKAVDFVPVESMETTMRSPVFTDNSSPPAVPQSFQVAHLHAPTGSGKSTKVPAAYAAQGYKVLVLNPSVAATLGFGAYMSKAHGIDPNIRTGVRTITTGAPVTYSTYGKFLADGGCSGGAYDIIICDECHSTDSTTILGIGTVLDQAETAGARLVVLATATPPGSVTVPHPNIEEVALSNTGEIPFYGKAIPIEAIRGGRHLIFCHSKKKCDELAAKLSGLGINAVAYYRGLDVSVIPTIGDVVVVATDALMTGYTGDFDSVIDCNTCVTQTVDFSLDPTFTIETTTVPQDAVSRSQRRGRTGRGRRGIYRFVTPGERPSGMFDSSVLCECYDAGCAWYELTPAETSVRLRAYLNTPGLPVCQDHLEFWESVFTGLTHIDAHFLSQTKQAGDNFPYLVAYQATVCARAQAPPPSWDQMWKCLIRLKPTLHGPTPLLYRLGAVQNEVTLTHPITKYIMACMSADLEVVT

Regarding `CC[C@@H](N[C@@H](C)CC(N)=O)c1ccc(Cl)c(C(=O)c2ccc(CO)cc2)c1F` [Example 186, (3S)-3-{[(1R)-1-(4-chloro-2-fluoro-3-{[4-(hydroxymethyl)-phenyl]carbonyl}phenyl)propyl]amino}-butanamide], under setting [1], the IC50 worked out at 0.11 µM. For `CC[C@@H](N)c1ccc(Cl)c(C(=O)c2nccs2)c1F` [Example 20, (1R)-1-{4-chloro-2-fluoro-3-[(1,3-thiazol-2-yl)carbonyl]phenyl}propan-1-amine], the IC50 is 0.82 µM under setting [1] and < 1 µM under setting [2]. The matching figures for `CC[C@@H](N[C@@H](C)CO)c1ccc(Cl)c(C(=O)c2cccnc2)c1F` [Example 165, (2S)-2-{[(1R)-1-{4-chloro-2-fluoro-3-[(pyridin-3-yl)carbonyl]phenyl}-propyl]amino}-propan-1-ol]: 1.4 µM and 1 to 5 µM. On to `CC[C@@H](N)c1ccc(Cl)c(C(=O)c2cnc(N)cn2)c1F` [Example 3, 5-({3-[(1R)-1-aminopropyl]-6-chloro-2-fluorophenyl}carbonyl)-pyrazin-2-amine], for which the IC50 was 1.3 µM under setting [1] and 1 to 5 µM under setting [2]. Compound `CC[C@@H](NCc1cn[nH]c1)c1ccc(Cl)c(C(=O)c2cccnc2)c1F` [Example 299, [(1R)-1-{4-chloro-2-fluoro-3-[(pyridin-3-yl)carbonyl]phenyl}propyl] (1H-pyrazol-4-ylmethyl)amine] registered an inhibition at 10 µM (@ 10 uM) of 32%.

For the compound “(3S)-3-{[(1R)-1-{3-[(6- aminopyridazin-3- yl)carbonyl]-4-chloro-2- fluorophenyl}propyl]amino} butanamide [Example 232]”, the IC50 by setting is: under setting [1], 0.99 µM; under setting [2], < 1 µM. Consider `CC[C@@H](N)c1ccc(Cl)c(C(=O)c2cccc(C#N)c2)c1F` [Example 18, 3-({3-[(1R)-1-aminopropyl]-6-chloro-2-fluorophenyl}carbonyl)benzonitrile], for which the IC50 by setting is: under setting [1], 0.62 µM; under setting [2], < 1 µM. `CC[C@@H](N)c1ccc(Cl)c(C(=O)c2cncc(OC)c2)c1F` [Example 17, (1R)-1-{4-chloro-2-fluoro-3-[(5-methoxypyridin-3-yl)carbonyl]phenyl}propan-1-amine] had an inhibition at 100 µM of 65%.

For `C[C@H](CC(N)=O)N[C@@H](c1ccc(Cl)c(C(=O)c2ccc(CO)cc2)c1F)C1CC1` [Example 264, (3R)-3-{[(R)-(4-chloro-2-fluoro-3-{[4-(hydroxymethyl)phenyl]carbonyl}phenyl)(cyclopropyl)methyl]amino}butanamide], under setting [1], the IC50 came to 0.61 µM. With `CC[C@H](NC(=N)N)c1ccc(Cl)c(C(=O)c2cccnc2)c1F` [Example 302], the IC50 under setting [1] was determined as 1.3 µM and the IC50 under setting [2] lay within 1 to 5 µM. Regarding `CC[C@@H](N[C@H](C)CC(N)=O)c1ccc(OC)c(C(=O)c2cccc(C#N)c2)c1F` [Example 277, (3R)-3-{[(1R)-1-{3-[(3-cyanophenyl)carbonyl]-2-fluoro-4-methoxyphenyl}propyl]amino}butanamide], the IC50 under setting [1] worked out at 0.73 µM. Regarding `CC[C@@H](NC[C@@H](C)C(N)=O)c1ccc(Cl)c(C(=O)c2cccnc2)c1F.Cl` [Example 174, 2R)-3-{[(1R)-1-{4-chloro-2-fluoro-3-[(pyridin-3-yl)carbonyl]phenyl}-propyl]amino}-2-methylpropanamide HCl (1:1], the “Assay A % inhibition average” value stood at 47% @ 30 uM. Also, for the setting “stated as IC50 less than 30 μM or at least 40% inhibition at a concentration of 100 μM, read-out: IC50 against the protease activity of the full length NS3/4a”, the IC50 is < 30 µM. Turning to `CC[C@@H](NCc1cnc[nH]1)c1ccc(Cl)c(C(=O)c2cccnc2)c1F` [Example 288, [(1R)-1-{4-chloro-2-fluoro-3-[(pyridin-3-yl)carbonyl]phenyl}propyl](1H-imidazol-5-ylmethyl)amine], the IC50 reads like this: under setting [1], 1.4 µM; under setting [2], 1 to 5 µM.

Turning to `CC[C@@H](N[C@H](C)CC(N)=O)c1ccc(Cl)c(C(=O)c2ccc(N)cn2)c1F` [Example 156, (3R)-3-{[(1R)-1-{3-[(5-aminopyridin-2-yl)carbonyl]-4-chloro-2-fluorophenyl}propyl]-amino}butanamide], the IC50 under setting [1] was 2 µM and the IC50 under setting [2] is 1 to 5 µM.

For `CC[C@@H](N[C@H](C)CC(N)=O)c1ccc(Cl)c(C(=O)c2ccccc2)c1F` [Example 83, (3R)-3-{[(1R)-1-(3-benzoyl-4-chloro-2-fluorophenyl)propyl]-amino}butanamide], the IC50 under setting [1] came out at 0.5 µM. Take `CC[C@@H](N[C@@H](C)CC(N)=O)c1ccc(Cl)c(C(=O)c2cnc(NC)cn2)c1F` [Example 192, (3S)-3-{[(1R)-1-(4-chloro-2-fluoro-3-{[5-(methylamino)-pyrazin-2-yl]carbonyl}-phenyl)propyl]-amino}butanamide]: the IC50 is 0.63 µM under setting [1] and < 1 µM under setting [2]. On to `CC[C@@H](N)c1ccc(Cl)c(C(=O)c2cccc(CO)c2)c1F` [Example 54, [3-({3-[(1R)-1-aminopropyl]-6-chloro-2-fluorophenyl}carbonyl)phenyl]methanol], for which the IC50 under setting [1] stood at 0.14 µM and the IC50 under setting [2] is < 1 µM.

Turning to `CC[C@@H](N[C@H](C)CC(N)=O)c1ccc(Cl)c(C(=O)c2cccnc2)c1F` [Example 94, (3R)-3-{[(1R)-1-{4-chloro-2-fluoro-3-[(pyridin-3-yl)carbonyl]phenyl}propyl]amino}butanamide], the IC50 by setting is: under setting [1], 1 µM; under setting [2], 1 to 5 µM.

As for `CC[C@H](NC(=O)C1=CCNC1)c1ccc(Cl)c(C(=O)c2cccnc2)c1F` [Example 286, N-[(1S)-1-{4-chloro-2-fluoro-3-[(pyridin-3-yl)carbonyl]phenyl}propyl]-2,5-dihydro-1H-pyrrole-3-carboxamide], the IC50 under setting [1] was 0.13 µM and the IC50 under setting [2] is < 1 µM. Take `CC[C@@H](N[C@H](C)CC(N)=O)c1ccc(Cl)c(C(=O)c2ccc(C#N)nc2)c1F` [Example 141, (3R)-3-{[(1R)-1-{4-chloro-3-[(6-cyanopyridin-3-yl)carbonyl]-2-fluorophenyl}propyl]-amino}butanamide]: the IC50 under setting [1] stood at 0.47 µM and the IC50 under setting [2] was < 1 µM. On the same counts, the results for `N[C@@H](c1ccc(Cl)c(C(=O)c2cccnc2)c1F)C1CC1` [Example 28, (R)-{4-chloro-2-fluoro-3-[(pyridin-3-yl)carbonyl]phenyl}(cyclopropyl)methanamine] are 1.5 µM and 1 to 5 µM. With `[2H]C([2H])([2H])C([2H])([2H])[C@H](N)c1ccc(Cl)c(C(=O)c2ccccc2)c1F` [Example 24, (1S)-1-(3-benzoyl-4-chloro-2-fluorophenyl)(2,2,3,3,3-D)propan-1-amine], the IC50 by setting is: under setting [1], 0.075 µM; under setting [2], < 1 µM. `CC[C@@H](N[C@H](C)CC(N)=O)c1ccc(F)c(C(=O)c2ccccc2)c1F` [Example 158, (3R)-3-{[(1R)-1-(3-benzoyl-2,4-difluorophenyl)propyl]-amino}butanamide]: under setting [1], the IC50 was 0.35 µM. As for `COc1ccc([C@H](N[C@H](C)CC(N)=O)C2CC2)c(F)c1C(=O)c1cccc(F)c1` [Example 223, (3R)-3-{[(R)-cyclopropyl({2-fluoro-3-[(3-fluorophenyl)carbonyl]-4-methoxyphenyl})methyl]amino}butanamide], the IC50 reads like this: under setting [1], 3.1 µM; under setting [2], 1 to 5 µM. Turning to `[2H]C([2H])([2H])C([2H])([2H])[C@@H](N[C@H](C)CC(N)=O)c1ccc(Cl)c(C(=O)c2ccc(N)c(Cl)c2)c1F` [Example 220, (3R)-3-{[(1R)-1-{3-[(4-amino-3-chlorophenyl)carbonyl]-4-chloro-2-fluorophenyl}(2,2,3,3,3-deutero)propyl]amino} butanamide], the IC50 under setting [1] turned out to be 0.26 µM. On to `CC[C@@H](N[C@H](C)CC(N)=O)c1ccc(OC)c(C(=O)c2ccc(F)cc2)c1F` [Example 199, (3R)-3-{[(1R)-1-{2-fluoro-3-[(4-fluorophenyl)carbonyl]-4-methoxyphenyl}propyl]amino}butanamide], for which the inhibition at 100 µM stood at 32%.

Regarding `Nc1ccc(C(=O)c2c(Cl)ccc([C@H](N)C3CC3)c2F)nc1` [Example 61, 6-({3-[(R)-amino(cyclopropyl)methyl]-6-chloro-2-fluorophenyl}carbonyl)pyridin-3-amine], the IC50 was 1.2 µM under setting [1] and 1 to 5 µM under setting [2]. On to `CC[C@@H](N[C@H](C)CC(N)=O)c1ccc(OC)c(C(=O)c2ccc(N)nc2)c1F` [Example 253, (3R)-3-{[(1R)-1-{3-[(6-aminopyridin-3-yl)carbonyl]-2-fluoro-4-methoxyphenyl}propyl]amino}butanamide], for which the IC50 was 1.4 µM under setting [1] and 1 to 5 µM under setting [2].

`C[C@H](CC(N)=O)N[C@@H](c1ccc(Cl)c(C(=O)c2ccc(N)c(Cl)c2)c1F)C1CC1` [Example 202, (3R)-3-{[(R)-{3-[(4-amino-3-chlorophenyl)carbonyl]-4-chloro-2-fluorophenyl}(cyclopropyl)methyl]amino}butanamide]: the IC50 under setting [1] turned out to be 0.31 µM. Still for that read-out and setting: next, `Cc1cc(C(=O)c2c(Cl)ccc([C@H](N[C@H](C)CC(N)=O)C3CC3)c2F)ccc1N` [Example 203, (3R)-3-{[(R)-{3-[(4-amino-3-methylphenyl)carbonyl]-4-chloro-2-fluorophenyl}(cyclopropyl)methyl]amino}butanamide]: 0.27 µM; `CC[C@@H](N[C@@H](C)CC(N)=O)c1ccc(Cl)c(C(=O)c2ccnc(N)c2)c1F` [Example 205, (3S)-3-{[(1R)-1-{3-[(2-aminopyridin-4-yl)carbonyl]-4-chloro-2-fluorophenyl}propyl]amino} butanamide]: 0.19 µM. Consider `[2H]C([2H])([2H])C([2H])([2H])[C@@H](N[C@H](C)CC(N)=O)c1ccc(Cl)c(C(=O)c2ccc(N)c(C)c2)c1F` [Example 221, (3R)-3-{[(1R)-1-{3-[(4-amino-3-methylphenyl)carbonyl]-4-chloro-2-fluorophenyl}(2,2,3,3,3-deutero)propyl]amino} butanamide], for which the IC50 under setting [1] was determined as 0.36 µM.

The record behind these values is patent US9145354B2, “Pharmaceutical compounds” (priority 2011, dated 2015).
